Assay results reported in ChEMBL document CHEMBL1772945, “Bioactive compounds from the scale insect pathogenic fungus Conoideocrella tenuis BCC 18627” (J Nat Prod, 2011).
Values after ≈ are worked out from the molar mass of the structure shown. Structures can show the parent of a compound that is named as a salt.

Tests used:
Plasmodium falciparum = experiment: Antimalarial activity against multi-drug-resistant Plasmodium falciparum K1 by microculture radioisotope technique; type: functional, organism-based
[1] = test system: Mycobacterium tuberculosis; experiment: Antitubercular activity against Mycobacterium tuberculosis H37Ra by green fluorescent protein microplate assay; type: functional
Human alphaherpesvirus 1 = experiment: Antiviral activity against HSV-1 by green fluorescent protein microplate assay; type: functional, organism-based
KB = experiment: Cytotoxicity against human KB cells after 45 hrs by resazurin microplate assay; type: functional, cell-based
MCF7 = experiment: Cytotoxicity against human MCF7 cells after 45 hrs by resazurin microplate assay; type: functional, cell-based; conditions: MCF7, 45 h
NCI-H187 = experiment: Cytotoxicity against human NCI-H187 cells after 45 hrs by resazurin microplate assay; type: functional, cell-based; conditions: NCI-H187, 45 h
Vero = experiment: Cytotoxicity against african green monkey Vero cells by green fluorescent protein microplate assay; type: cell-based; conditions: Chlorocebus sabaeus

CC(C)(O)[C@H]1CC[C@]2(C)[C@H]3C[C@@H](O)[C@@H]4[C@@]5(C)CCCC(C)(C)[C@@H]5[C@H](O)C[C@@]4(C)[C@]3(C=O)CC[C@@H]12
IC50 (Plasmodium falciparum): > 21 µM
MIC [1]: > 105 µM
IC50 (Human alphaherpesvirus 1): 21 µM
IC50 (KB): 10 µM
IC50 (MCF7): 28 µM
IC50 (NCI-H187): 68 µM
IC50 (Vero): 69 µM

CC(C)(O)[C@H]1CC[C@]2(C)[C@H]3C[C@@H](O)[C@@H]4[C@@]5(C)CCCC(C)(C)[C@@H]5[C@H](O)C[C@@]4(C)[C@]3(CO)CC[C@@H]12
IC50 (Plasmodium falciparum): 9.8 µM
MIC [1]: 52 µM (≈ 24.8 µg/mL)
IC50 (Human alphaherpesvirus 1): 14 µM
IC50 (KB): 5.6 µM
IC50 (MCF7): 15 µM
IC50 (NCI-H187): 47 µM
IC50 (Vero): 47 µM

CC(C)(O)[C@H]1CC[C@]2(C)[C@H]3CC[C@@H]4[C@@]5(C)CCCC(C)(C)[C@@H]5[C@H](O)[C@H](O)[C@@]4(C)[C@]3(C)CC[C@@H]12
IC50 (Plasmodium falciparum): > 22 µM
MIC [1]: > 109 µM
IC50 (Human alphaherpesvirus 1): > 109 µM
IC50 (KB): > 109 µM
IC50 (MCF7): > 109 µM
IC50 (NCI-H187): > 109 µM
IC50 (Vero): > 109 µM

COc1cc(OC)c2c(O)c3c(c(-c4c(OC)cc(OC)c5c(O)c6c(cc45)[C@H](OC(C)=O)[C@H](C)OC6)c2c1)[C@H](OC(C)=O)[C@H](C)OC3
IC50 (Plasmodium falciparum): 15 µM
MIC [1]: > 75 µM
IC50 (Human alphaherpesvirus 1): > 75 µM
IC50 (KB): 15 µM
IC50 (MCF7): 37 µM
IC50 (NCI-H187): 12 µM
IC50 (Vero): > 75 µM

COc1cc(OC)c2c(O)c3c(c(-c4c5c(c(O)c6c(OC)cc(OC)cc46)CO[C@@H](C)[C@H]5OC(C)=O)c2c1)[C@H](OC(C)=O)[C@H](C)OC3
IC50 (Plasmodium falciparum): 10 µM
MIC [1]: > 75 µM
IC50 (Human alphaherpesvirus 1): > 75 µM
IC50 (KB): 4.4 µM
IC50 (MCF7): 22 µM
IC50 (NCI-H187): 71 µM
IC50 (Vero): > 75 µM

Nc1nc2c(ncn2COCCO)c(=O)[nH]1 [ACYCLOVIR]
IC50 (Human alphaherpesvirus 1): 17 µM

COc1cccc2c1C(=O)c1c(O)c3c(c(O)c1C2=O)C[C@@](O)(C(=O)CO)C[C@@H]3O[C@H]1C[C@H](N)[C@H](O)[C@H](C)O1 [DOXORUBICIN HYDROCHLORIDE]
IC50 (KB): 0.27 µM
IC50 (MCF7): 4.9 µM
IC50 (NCI-H187): 0.23 µM

Cc1c2ccncc2c(C)c2c1[nH]c1ccccc12 [ELLIPTECINE]
IC50 (Vero): 12 µM
